One block for each compound: values may come before it.
How the values were obtained:
[1] = tested on: Ki67 on FFPE tonsil tissue; test: HRP DAB amplified by QMP-biotin with various leaving groups; conditions: CHES pH 10.0, ultraView DAB control; for signal resolution and intensity compared to the control slide: monofluoro 400 nM, acetate and methoxy 100 μM; for staining intensity and signal diffusion compared to the control slide: quaternary amine leaving groups, 100 μM
Description: (b) Quinone methide analog precursor amplified DAB (FIGS. 21(B)-(D)). The tissue was deparaffinized and retrieved as described in the general procedures. Rabbit-anti-Ki-67 antibody incubation (37° C., 16 minutes) and washing were followed by secondary antibody incubation with a goat polyclonal anti-rabbit antibody conjugated to AP (37° C.; 12 minutes). After incubating with the AP conjugate the slides were washed with Special Stains wash. Pyridine QMP-biotin (100 μM) (FIG. 21(B)) or DABCO QMP-biotin (100 μM) (FIG. 21(C)) or triethylamine QMP-biotin (100 μM) (FIG. 21(D)) was dissolved in 100 mM CHES, pH 10.0, 0.05% Brij-35 to a final concentration of 100 nM. QMP turnover was achieved by adding 100 μL of AP Enhancer followed by 100 μL of biotin labeled QMP and incubating at 37° C. for 16 minutes. The deposited hapten was subsequently bound by streptavidin-HRP conjugate (37° C.; 8 minutes), and visualized via a brown precipitate produced by HRP upon the addition of hydrogen peroxide and DAB (37° C.; 8 minutes). The DAB was toned by the addition of copper sulfate (37° C.; 4 minutes). The stained tissue sections were counterstained with modified Mayer's hematoxylin (37° C.; 4 minutes) and then incubated with Bluing Reagent (37° C.; 4 minutes). They were then dehydrated through a graded ethanol series, cleared with xylene, and manually cover-slipped.
(§1) (b) QMP amplified DAB (FIGS. 22(B)-22(D)). The tissue was deparaffinized and retrieved as described in the general procedures. Rabbit-anti-Ki-67 antibody incubation (37° C., 16 minutes) and washing were followed by secondary antibody incubation with a goat polyclonal anti-rabbit antibody conjugated to AP (37° C.; 12 minutes). After incubating with the AP conjugate the slides were washed with Special Stains wash. Monofluoro QMP-biotin (400 nM) (FIG. 22(B)) or acetate QMP-biotin (100 μM) (FIG. 22(C)) or methoxy QMP-biotin (100 μM) (FIG. 22(D)) was dissolved in 100 mM CHES, pH 10.0, 0.05% Brij-35 to a final concentration of 100 nM. QMP turnover was achieved by adding 100 μL of AP Enhancer followed by 100 μL of biotin labeled QMP and incubating at 37° C. for 16 minutes. The deposited biotin was subsequently bound by a streptavidin-HRP conjugate (37° C.; 8 minutes), and visualized via a brown precipitate produced by HRP upon the addition of hydrogen peroxide and DAB (37° C.; 8 minutes). The DAB was toned by the addition of copper sulfate (37° C.; 4 minutes). The stained tissue sections were counterstained with modified Mayer's hematoxylin (37° C.; 4 minutes) and then incubated with Bluing Reagent (37° C.; 4 minutes). They were then dehydrated through a graded ethanol series, cleared with xylene, and manually cover-slipped.

[2] = tested on: Bcl2 on FFPE tonsil tissue; test: HRP DAB amplified by QMP-biotin with different linkers; conditions: 100 nM, CHES pH 10.0, different linkers
Description: as §1, with “The” for “(b) QMP amplified DAB (FIGS. 22(B)-22(D)). The”, “Mouse-anti-Bcl-2” for “Rabbit-anti-Ki-67”, “anti-mouse” for “anti-rabbit”, “(with aniline amide (FIG. 23(A)), benzoic amide (FIG. 23(B)) or tyramide amide linker (FIG. 23(C)) (100” for “(400”, “nM)” for “nM) (FIG. 22(B)) or acetate QMP-biotin (100 μM) (FIG. 22(C)) or methoxy QMP-biotin (100 μM) (FIG. 22(D))”

[3] = Accelerated stability study in Buffer A (50/50 DMSO and 10 mM glycine buffer pH 2.0); format: physicochemical; conditions: 20-25 °C
Description: With an understanding of the degradation pathways and characteristics, a solvent system was designed for the purpose of extending shelf-life of QMP compounds. […] At elevated temperature the degradation pathway described in FIG. 3C was still observed. However, at normal storage conditions (2-25° C.) the rate of decomposition of the QMP is reduced compared to 100% aqueous systems.

[4] = tested on: BCL6 on FFPE tonsil tissue; test: AP-based CARD IHC with biotinylated QM precursor followed by DAB detection
Description: Detection 1—HRP DAB. After incubating with the AP conjugate the slides were washed with Special Stains wash (VMSI #860-015). QMP reagents were dissolved in 100 mM CHES (3-cyclo-hexylamino-ethylsulfonic acid), pH 10.0, 0.05% Brij-35. QMP turnover was achieved by adding 100 μL of AP Enhancer (VMSI #253-2182) followed by 100 μL of hapten labeled QMP and incubating at 37° C. for 16 minutes. Compound 29 is an exemplary hapten-QMP that could be used according to this method. The deposited hapten was subsequently bound by a mouse-anti-hapten-HRP conjugate (or streptavidin-HRP) (37° C.; 8 minutes), and visualized via a brown precipitate produced by HRP upon the addition of hydrogen peroxide and DAB (37° C.; 8 minutes). The DAB was toned by the addition of copper sulfate (37° C.; 4 minutes). The stained tissue sections were counterstained with modified Mayer's hematoxylin (Hematoxylin II, VMSI #790-2208) (37° C.; 4 minutes) and then incubated with Bluing Reagent (VMSI #760-2037) (37° C.; 4 minutes). The slides were then dehydrated through a graded ethanol series, cleared with xylene, and manually cover-slipped.
Both compounds utilize fluoride as the leaving group, but the reactivity of the QM derived from difluoro compound 58 should be considerably lower than monofluoro 7 due to the electronic stabilization offered by the geminal fluorine atom. […] Therefore, the difluoro QM precursor compound 58 was evaluated first for IHC staining performance on FFPE tissue using the nuclear marker BCL6 on FFPE tonsil tissue as a model system. The biotin-labeled difluoro QM precursor successfully bound to the sample as evidenced by subsequent biotin visualization using diaminobenzidine (DAB) detection. FIG. 18 provides microphotographs illustrating the detection level at varying concentrations of the difluoro QM precursor in a Tris buffer at pH=8.5 (panel A—DAB control, panel B—1 μM, panel C—10 μM and panel D—20 μM). In addition, significant amplification of signal was observed compared to the DAB control sample when on-slide concentrations of difluoro QM precursor compound 58 greater than […] were utilized.
To test the effect of pH on signal diffusion, difluoro QM precursor compound 58 was deposited as before at various pH levels within the working range for AP (7-12 with two shoulders of maximal activity at pH=8.5 and 11). The nuclear marker BCL6 on FFPE tonsil tissue was again chosen as the model. Positive staining was observed across the entire pH range, although a balance between overall signal and diffusion was seen. FIG. 19, panels A-H provide microphotographs of the detection levels of 20 µM QM precursor in Tris buffer with varying pH: panel A—DAB control; panel B pH=7.0; panel C pH=8.0; panel D pH=8.5; panel E pH=9.0; panel F pH=10.0; panel G pH=11.0; panel H pH=12.0. The diffusion appears to decrease with increasing pH. […] The level of amplification increased only as the pH rose to 8.5 and then decreased gradually over the rest of the range. This effect may be due to a combination of enzyme activity and the population of QM quenchers in the reaction media. At pH levels well below the optimal AP reaction conditions (7.0), the activity of AP was depressed, resulting in low signal. As the pH increased (8.0-8.5) but remained near the pKa of Tris (8.1), the activity of AP increased at a faster rate than the population of quenchers in the reaction media, leading to a significant increase in signal. Raising the pH further (9-10) increased the quencher population while decreasing AP activity, resulting in a decrease of signal. Although AP had maximal activity at pH 11 in Tris, a slight decrease in staining intensity was observed, most likely due to the excessively high population of quenchers that could not be overcome by the increased AP activity (raising the pH from 8.5 to 11 increases [Tris base] about 50%, with AP activity increasing by only about 20%). […]

Compound: COCc1cc(NC(=O)CCCCCNC(=O)CCCCC2SCC3NC(=O)NC32)ccc1OP(=O)(O)O (centres unmarked) [methoxy QMP-biotin, 2-(methoxymethyl)-4-(6-(5-(2-oxohexahydro-1H-thieno[3,4-d]imidazol-4-yl)pentanamido)hexanamido)phenyl dihydrogen phosphate]
signal resolution and intensity compared to the control slide [1]: well resolved signal but with low intensity

Compound: O=C(CCCCC1SCC2NC(=O)NC21)NCCc1ccc(OP(=O)(O)O)c(CF)c1 (centres unmarked) [Compound 14, 2-(fluoromethyl)-4-(2-(5-(2-oxohexahydro-1H-thieno[3,4-d]imidazol-4-yl)pentanamido)ethyl)phenyl dihydrogen phosphate]
signal resolution [2]: well resolved signals

QMP remaining ([3]; 0.0 days): 99.9%
QMP remaining ([3]; 1.0 days): 99.8%
QMP remaining ([3]; 4.0 days): 95.4%
QMP remaining ([3]; 8.0 days): 95.6%
QMP remaining ([3]; 10.0 days): 95.7%
QMP remaining ([3]; 14.0 days): 95.1%
QMP remaining ([3]; 17.0 days): 95.8%
QMP remaining ([3]; 25.0 days): 95.5%
QMP remaining ([3]; 36.0 days): 94%
Compound: CN1/C(=C/C=C/C=C/C2=[N+](CCCCCC(=O)NCCCCCCNC(=O)C(F)c3ccccc3OP(=O)(O)O)c3ccccc3C2(C)C)C(C)(C)c2ccccc21.[Cl-] (centres unmarked) [28(D)]

Compound: CC[N+](CC)(CC)Cc1cc(NC(=O)CCCCCNC(=O)CCCCC2SCC3NC(=O)NC32)ccc1OP(=O)(O)O (centres unmarked) [triethylamine QMP-biotin, N,N-diethyl-N-(5-(6-(5-(2-oxohexahydro-1H-thieno[3,4-d]imidazol-4-yl)pentanamido)hexanamido)-2-(phosphonooxy)benzyl)ethanaminium]
staining intensity and signal diffusion compared to the control slide [1]: much lower staining intensity and greatly diffuse signals

QMP remaining ([3]; 0.0 days): 100%
QMP remaining ([3]; 1.0 days): 100%
QMP remaining ([3]; 4.0 days): 100%
QMP remaining ([3]; 8.0 days): 100%
QMP remaining ([3]; 10.0 days): 100%
QMP remaining ([3]; 14.0 days): 100%
QMP remaining ([3]; 17.0 days): 100%
QMP remaining ([3]; 25.0 days): 97.8%
QMP remaining ([3]; 36.0 days): 96.7%
Compound: CN(C)c1ccc(N=Nc2ccc(S(=O)(=O)NCCOCCOCCOCCOCCOCCOCCOCCOCCC(=O)NCCCCCCNC(=O)C(F)c3ccccc3OP(=O)(O)O)cc2)cc1 (centres unmarked) [28(C)]

Compound: O=C(CCCCC1SCC2NC(=O)NC21)NCCCCCC(=O)Nc1ccc(OP(=O)(O)O)c(CF)c1 (centres unmarked) [Monofluoro QMP-biotin]
signal resolution and intensity compared to the control slide [1]: well resolved signal with greater or equal intensity to the control slide

Compound: O=C(CCCCC1SCC2NC(=O)NC21)NCCCCCC(=O)Nc1ccc(OP(=O)(O)O)c(C(F)F)c1 (centres unmarked) [Compound 58]
diffusion at the upper end of the pH range ([4]; Tris buffer, pH 7-12): still too great to be of clinical use for IHC
on-slide concentration at which significant amplification of signal was observed compared to the DAB control ([4]; Tris buffer, pH=8.5): greater than 20 μM
diffusion of signal, off-target staining ([4]; Tris buffer, pH=8.5, 1-20 μM, all cases): increased diffusion of signal
concentration required to give the desired level of amplification ([4]; pH 8.5 in Tris buffer): 20 µM

Compound: O=C(CCCCC1SCC2NC(=O)NC21)NCCCCCC(=O)Nc1ccc(OP(=O)(O)O)c(C[n+]2ccccc2)c1 (centres unmarked) [pyridine QMP-biotin, 1-(5-(6-(5-(2-oxohexahydro-1H-thieno[3,4-d]imidazol-4-yl)pentanamido)hexanamido)-2-(phosphonooxy)benzyl)pyridin-1-ium]
staining intensity and signal diffusion compared to the control slide [1]: much lower staining intensity and greatly diffuse signals

Compound: O=C(CCCCC1SCC2NC(=O)NC21)NCCCCCC(=O)Nc1ccc(OP(=O)(O)O)c(C[N+]23CCN(CC2)CC3)c1 (centres unmarked) [DABCO QMP-biotin, 1-(5-(6-(5-(2-oxohexahydro-1H-thieno[3,4-d]imidazol-4-yl)pentanamido)hexanamido)-2-(phosphonooxy)benzyl)-1,4-diazabicyclo[2.2.2]octan-1-ium]
staining intensity and signal diffusion compared to the control slide [1]: much lower staining intensity and greatly diffuse signals

Compound: CC(=O)OCc1cc(NC(=O)CCCCCNC(=O)CCCCC2SCC3NC(=O)NC32)ccc1OP(=O)(O)O (centres unmarked) [acetate QMP-biotin, 5-(6-(5-(2-oxohexahydro-1H-thieno[3,4-d]imidazol-4-yl)pentanamido)hexanamido)-2-(phosphonooxy)benzyl acetate]
signal resolution and intensity compared to the control slide [1]: weak, very diffuse signal

Source: patent US12215118B2, “Quinone methide analog signal amplification” (Ventana Medical Systems, Inc., priority 2014, dated 2025)
